Tests used:
Format in all cases: functional, cell-based
[1] = molecular target: T1, Solute carrier family 22 member 6 (Homo sapiens, UniProt Q4U2R8); assay: TP_TRANSPORTER: uptake in OAT1-expressing HeLa cells
T1 sequence (Q4U2R8 whole entry): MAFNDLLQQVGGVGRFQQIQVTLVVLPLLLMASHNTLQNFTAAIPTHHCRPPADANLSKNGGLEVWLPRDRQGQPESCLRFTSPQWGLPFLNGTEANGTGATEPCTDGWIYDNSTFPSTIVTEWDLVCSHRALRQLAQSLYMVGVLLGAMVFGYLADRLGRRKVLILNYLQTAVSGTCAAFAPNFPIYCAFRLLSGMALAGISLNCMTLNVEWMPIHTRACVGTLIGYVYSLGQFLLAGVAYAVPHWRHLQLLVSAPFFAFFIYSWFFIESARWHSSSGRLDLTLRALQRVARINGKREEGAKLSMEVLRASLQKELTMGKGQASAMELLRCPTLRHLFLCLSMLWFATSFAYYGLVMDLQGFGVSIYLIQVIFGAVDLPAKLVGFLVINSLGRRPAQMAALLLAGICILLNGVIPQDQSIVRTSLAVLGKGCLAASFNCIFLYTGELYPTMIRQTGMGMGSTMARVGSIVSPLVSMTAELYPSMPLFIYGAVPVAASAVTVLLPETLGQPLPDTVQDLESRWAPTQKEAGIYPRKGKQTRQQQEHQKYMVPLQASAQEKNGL

[2] = molecular target: T1, Solute carrier family 22 member 6; assay: TP_TRANSPORTER: inhibition of PAH uptake (alpha,-KG: 200 uM) in OAT1-expressing HeLa cells
[3] = molecular target: T1, Solute carrier family 22 member 6; assay: TP_TRANSPORTER: inhibition of PAH uptake (Anandamide: 100 uM) in OAT1-expressing HeLa cells
[4] = molecular target: T1, Solute carrier family 22 member 6; assay: TP_TRANSPORTER: inhibition of PAH uptake (PAH: 0.4 uM, Phenylbutazone: 200 uM) in OAT1-expressing HeLa cells
[5] = molecular target: T1, Solute carrier family 22 member 6; assay: TP_TRANSPORTER: inhibition of PAH uptake (Furosemide: 200 uM) in OAT1-expressing HeLa cells
[6] = molecular target: T1, Solute carrier family 22 member 6; assay: TP_TRANSPORTER: inhibition of PAH uptake (Indomethacin: 200 uM) in OAT1-expressing HeLa cells

O=C(O)CCC(=O)C(=O)O [ALPHA-KETOGLUTARIC ACID]
Activity [1]: substrate [+] | Activity [2]: inhibitor [(at a rough estimate) 35 % of control]

CCCCC/C=C\C/C=C\C/C=C\C/C=C\CCCC(=O)NCCO [ANANDAMIDE]
Activity [3]: is not an inhibitor [-]

O=C1OC2(c3ccc(O)cc3Oc3cc(O)ccc32)c2ccccc21 [FLUORESCEIN]
Activity [4]: inhibitor [(at a rough estimate) 20 % of control]

NS(=O)(=O)c1cc(C(=O)O)c(NCc2ccco2)cc1Cl [FUROSEMIDE]
Activity [5]: inhibitor [(at a rough estimate) 50 % of control]

COc1ccc2c(c1)c(CC(=O)O)c(C)n2C(=O)c1ccc(Cl)cc1 [INDOMETHACIN]
Activity [6]: inhibitor [(at a rough estimate) 20 % of control]

— ChEMBL document CHEMBL2074412, “Cloning of the human kidney PAH transporter: narrow substrate specificity and regulation by protein kinase C” (Am J Physiol, 1999)
